From article PMC7914897, “Cytotoxic Potential of a-Azepano- and 3-Amino-3,4-SeCo-Triterpenoids” (International Journal of Molecular Sciences, 2021)
Read-outs that look alike come from different tables or passages of the source.

Columns and labels:
[1] = system: NIH 3T3 (non-malignant mouse fibroblasts); experiment: SRB cytotoxicity assay, 72 h; type: cell-based; settings: Mus musculus, NIH3T3; NIH 3T3, 72 h, cut-off 30 µM; read-out: EC50
Protocol: The cytotoxicity of compounds 1–20 was evaluated by means of a colorimetric sulforhodamine B (SRB) assay. For all compounds, the EC50 values were determined for the human tumor cell lines A375 (malignant melanoma), HT29 (colorectal carcinoma), MCF-7 (breast carcinoma), A2780 (ovarian carcinoma), FaDu (hypopharyngeal carcinoma), and NIH 3T3 (non-malignant mouse fibroblasts).
In short, exponentially growing cells were seeded into 96-well plates on day 0 at the appropriate cell densities to prevent confluence of the cells during the period of experiment. After 24 h, the cells were treated with serial dilutions of the compounds (0–30 µM) for 72 h. The final concentration of DMSO never exceeded 0.5%, which was non-toxic to the cells. After a 72 h treatment, the supernatant medium from the 96-well plates was discarded, and the cells were fixed with 10% TCA. For a thorough fixation, the plates were allowed to rest at 4 °C. After fixation, the cells were washed in a strip washer. The washing was done four times with water using alternate dispensing and aspiration procedures. The plates were then dyed with 100 µL of 0.4% SRB for about 20 min. After dying, the plates were washed with 1% acetic acid to remove the excess of the dye and allowed to air-dry overnight. Tris base solution (200 µL, 10 mM) was added to each well and absorbance was measured at λ = 570 nm (using a 96 well plate reader, Tecan Spectra, Crailsheim, Germany). The percentages of surviving cells relative to untreated controls were determined.

OVCAR-4 (Ovarian cancer) = experiment: NCI-60 screen (SRB, 48 h); type: cell-based; settings: Homo sapiens
BT-549 (Breast cancer) = experiment: NCI-60 screen (SRB, 48 h); type: cell-based; settings: Homo sapiens
[2] = system: MDA-MB-468 (Breast cancer); experiment: cells; settings: Homo sapiens
Colon Cancer subpanel = experiment: NCI-60 screen, subpanel; settings: Homo sapiens
Renal Cancer subpanel = experiment: NCI-60 screen, subpanel; settings: Homo sapiens
EKVX (NSC lung cancer) = experiment: NCI-60 screen (SRB, 48 h); settings: Homo sapiens
HOP-62 (NSC lung cancer) = experiment: NCI-60 screen (SRB, 48 h); settings: Homo sapiens
[3] = system: NCI-H322M (NSC lung cancer); experiment: NCI-60 screen (SRB, 48 h); settings: Homo sapiens
HCT-116 (Colon cancer) = experiment: NCI-60 screen (SRB, 48 h); settings: Homo sapiens
SNB-75 (CNS cancer) = experiment: NCI-60 screen (SRB, 48 h); settings: Homo sapiens
UACC-62 (Melanoma) = experiment: NCI-60 screen (SRB, 48 h); settings: Homo sapiens
OVCAR-8 (Ovarian cancer) = experiment: NCI-60 screen (SRB, 48 h); settings: Homo sapiens, OVCAR-8
[4] = system: NCI/ADR-RES (Ovarian cancer); experiment: NCI-60 screen (SRB, 48 h); settings: Homo sapiens
SK-OV-3 (Ovarian cancer) = experiment: NCI-60 screen (SRB, 48 h); settings: Homo sapiens
786-0 (Renal cancer) = experiment: NCI-60 screen (SRB, 48 h); settings: Homo sapiens
A498 (Renal cancer) = experiment: NCI-60 screen (SRB, 48 h); settings: Homo sapiens
ACHN (Renal cancer) = experiment: NCI-60 screen (SRB, 48 h); settings: Homo sapiens
SN12C (Renal cancer) = experiment: NCI-60 screen (SRB, 48 h); settings: Homo sapiens
PC-3 (Prostate cancer) = experiment: NCI-60 screen (SRB, 48 h); settings: Homo sapiens
[5] = system: MDA-MB-31/ATCC (Breast cancer); experiment: NCI-60 screen (SRB, 48 h); settings: Homo sapiens
[6] = system: panel of approximately 60 cancer cell lines; experiment: NCI-60 screen (SRB, 48 h), full panel

## Cc1ccc(S(=O)(=O)OC[C@]23CCC(C)(C)C[C@H]2C2=CC[C@@H]4[C@@]5(C)CCCNC(C)(C)[C@@H]5CC[C@@]4(C)[C@]2(C)CC3)cc1 [Compound 15]
[1]
  EC50: 2.76 ± 0.3 µM
OVCAR-4 (Ovarian cancer); OVCAR-4, 48 h
  IC (TGI): 3.32 µM
OVCAR-4 (Ovarian cancer); OVCAR-4, read-out: GI50
  GI50: 1.69 µM
BT-549 (Breast cancer); BT-549
  GI50: 1.9 µM
BT-549 (Breast cancer); BT-549, 48 h
  IC (TGI): 3.78 µM
[2]; MDA-MB-468
  GI50: 1.56 µM
[2]; MDA-MB-468, 48 h, read-out: TGI
  IC (TGI): 3.13 µM
Colon Cancer subpanel; 48 h, read-out: TGI MG_MID
  IC (TGI): 3.25 µM
Colon Cancer subpanel; read-out: GI50 MG_MID
  GI50: 1.7 µM
Renal Cancer subpanel; 48 h, read-out: TGI MG_MID
  IC (TGI): 5.44 µM
Renal Cancer subpanel; read-out: GI50 MG_MID
  GI50: 2.13 µM
Renal Cancer subpanel; read-out: LC50 MG_MID
  CC50: 14.3 µM
EKVX (NSC lung cancer)
  GI50: 1.48 µM
EKVX (NSC lung cancer); 48 h, read-out: TGI
  IC (TGI): 2.96 µM
HOP-62 (NSC lung cancer); HOP-62
  GI50: 1.81 µM
HOP-62 (NSC lung cancer); HOP-62, 48 h, read-out: TGI
  IC (TGI): 3.56 µM
[3]
  GI50: 14.9 µM
[3]; 48 h, read-out: TGI
  IC (TGI): 4.05 µM
[3]; read-out: LC50
  CC50: > 100 µM
HCT-116 (Colon cancer); HCT-116
  GI50: 1.8 µM
HCT-116 (Colon cancer); HCT-116, 48 h, read-out: Growth % of the Most Sensitive Cell Lines
  activity at 10 µM: -83%
SNB-75 (CNS cancer); SNB-75
  GI50: 1.48 µM
SNB-75 (CNS cancer); SNB-75, 48 h, read-out: TGI
  IC (TGI): 2.94 µM
SNB-75 (CNS cancer); SNB-75, read-out: LC50
  CC50: 5.85 µM
UACC-62 (Melanoma); UACC-62
  GI50: 1.68 µM
UACC-62 (Melanoma); UACC-62, 48 h, read-out: TGI
  IC (TGI): 3.2 µM
OVCAR-8 (Ovarian cancer)
  GI50: 1.99 µM
[4]
  GI50: 1.89 µM
[4]; 48 h, read-out: TGI
  IC (TGI): 3.93 µM
SK-OV-3 (Ovarian cancer); SK-OV-3
  GI50: 1.76 µM
SK-OV-3 (Ovarian cancer); SK-OV-3, 48 h, read-out: TGI
  IC (TGI): 3.26 µM
SK-OV-3 (Ovarian cancer); SK-OV-3, read-out: LC50
  CC50: 6.03 µM
786-0 (Renal cancer); 786-0
  GI50: 1.85 µM
786-0 (Renal cancer); 786-0, 48 h, read-out: TGI
  IC (TGI): 4.14 µM
A498 (Renal cancer); A498
  GI50: 5.99 µM
A498 (Renal cancer); A498, 48 h, read-out: TGI
  IC (TGI): 21.4 µM
A498 (Renal cancer); A498, read-out: LC50
  CC50: 57.6 µM
ACHN (Renal cancer)
  GI50: 1.68 µM
ACHN (Renal cancer); 48 h, read-out: TGI
  IC (TGI): 3.07 µM
ACHN (Renal cancer); read-out: LC50
  CC50: 5.58 µM
SN12C (Renal cancer)
  GI50: 1.67 µM
SN12C (Renal cancer); 48 h, read-out: TGI
  IC (TGI): 3.3 µM
PC-3 (Prostate cancer); PC-3
  GI50: 1.66 µM
PC-3 (Prostate cancer); PC-3, 48 h, read-out: TGI
  IC (TGI): 3.16 µM
[5]
  GI50: 1.91 µM
[5]; 48 h, read-out: TGI
  IC (TGI): 4.12 µM
[6]; 1 dose 10 µM
  Positive Cytostatic Effect (cell lines with percent growth 0 to 50 / total): 17/60
  Positive Cytotoxic Effect (cell lines with percent growth < 0 / total): 14/60
  number of cancer cell lines the compound was active against: 22 cell lines
[6]; Homo sapiens, 48 h, read-out: Mean Growth, %
  activity at 10 µM: 37.2%
[6]; Homo sapiens, 48 h, read-out: Range of Growth, %
  activity at 10 µM: -87.7 to 104%
[6]; Homo sapiens, 48 h, read-out: TGI MG_MID60, average over all cell lines
  IC (TGI): 3.8 µM
[6]; Homo sapiens, read-out: GI50 MG_MID60
  GI50: 1.99 µM
[6]; Homo sapiens, read-out: GI50 against all human tumor cell lines
  GI50: < 15 µM
[6]; Homo sapiens, read-out: GI50 against the most sensitive cell lines
  GI50: 0.2 to 0.94 µM
[6]; Homo sapiens, read-out: LC50 MG_MID60, average over all cell lines
  CC50: 18.9 µM
